Here are results for 2 compounds from patent publication US20040152700A1, “Novel use of 2-phenyl-substituted imidazotriazinones” (priority 2001, published 2004).

For assay [1], the system named is memory power of rats (object recognition). The assay can be described thus: Object recognition test. The assay is classed as in vivo. The note with it: oral 1.0, 3.0 or 10 mg/kg in Tylose immediately after first passage, second passage 24 hours later. As to the method:
The object recognition test is a memory test. It measures the ability of rats (and mice) to differentiate between known and unknown objects.
The test was carried out as described (Blokland et al. NeuroReport 1998, 9, 4205-4208; Ennaceur, A., Delacour, J., Behav. Brain Res. 1988, 31, 47-59; Ennaceur, A., Meliani, K., Psychopharmacology 1992, 109, 321-330; Prickaerts, et al. Eur. J. Pharmacol. 1997, 337, 125-136).
In a first passage, a rat is confronted with two identical objects in an otherwise empty relatively large observation arena. The rat will investigate, i.e. sniff and touch, both objects thoroughly. In a second passage, after an interval of 24 hours, the rat is again placed in the observation arena. One of the known objects is now replaced by a new, unknown object. If a rat recognizes the known object, it will especially investigate the unknown object. After 24 hours, however, a rat has normally forgotten which object it has already investigated in the first passage, and will therefore inspect both objects to the same extent. […] It will investigate the new, unknown object in more detail than the already known one. This memory power is expressed in a discrimination index. […]

Assay [2] deals with memory capability of mice. The note with it: avoidance test; cited from earlier work.

Take `CCCc1nc(C)c2c(=O)[nH]c(-c3cc(S(=O)(=O)N4CCN(C)CC4)ccc3OCC)nn12` [Example 1, 2-[2-ethoxy-5-(4-methyl-piperazine-1-sulphonyl)-phenyl]-5-methyl-7-propyl-3H-imidazo[5,1-f][1,2,4]triazin-4-one]: the “memory power in the second passage compared with the control condition” value in assay [1] is listed as “improved”.
Consider `CCCc1nn(C)c2c(=O)[nH]c(-c3cc(S(=O)(=O)N4CCN(C)CC4)ccc3OCC)nc12` [Sildenafil, 5-[2-ethoxy-5-(4-methylpiperazin-1-ylsulphonyl)phenyl]1,6-dihydro-1-methyl-3-propylpyrazolo[4,3-d]pyrimidin-7-one], for which the “action on the memory capability” value in assay [2] is listed as “improving action”.
